Read-outs that look alike come from different tables or passages of the source.
Experiments:
hNaV1.7 = target: T1, hNaV1.7 (Homo sapiens, UniProt Q15858); format: cell-based
T1 construct: host or cells: HEK293
Experimental: (§1) HEK293 cells heterologously expressing human NaV1.1–1.8 (SB Drug Discovery, Glasgow, UK) were cultured in Minimum Essential Medium (MEM) (Sigma Aldrich #M5650) containing 10% v/v fetal bovine serum (FBS) and selection antibiotics as recommended by the manufacturer. SH-SY5Y human neuroblastoma cells (Victor Diaz, Goettingen, Germany) were cultured in Roswell Park Memorial Institute (RPMI) medium containing 15% v/v FBS and supplemented with L-glutamine (1 mM). […] Cells were grown in a humidified 5% CO2 incubator at 37°C, grown to 70–80% confluence, and passaged every 3–4 days using TrypLE Express (Invitrogen) or trypsin (0.25%).
(§2) Data were plotted and analyzed using GraphPad Prism, version 6.0. For concentration-response curves, a four-parameter Hill equation with variable Hill coefficient was fitted to the data. Statistical significance was defined as P < 0.05 and was determined by an unpaired t-test assuming equal variance or one-way ANOVA with Dunnett’s post-test as indicated. Data are presented as mean±SEM.

[1] = octanol-water partition of quencher dyes; format: physicochemical; details: 1 mM in 1:1 octanol/water, settled overnight
Experimental: Supplementary file pone.0213751.s002.pdf: S2 Fig Octanol-water partition of quencher dyes. Quenchers were added to 1:1 octanol/water volume to a 1mM concentration. Tubes were agitated and allowed to settle overnight. […] (PDF) Click here for additional data file.

adenosine receptors = tested on: adenosine receptors; parameters: method as in PMID 20086038; details: cited from earlier work
[2] = absorbance spectra (UV-Vis spectrophotometry); format: physicochemical; details: diluted in water, NanoDrop ND1000
Experimental: Quencher dyes Allura Red AC, Amaranth, Carmine, Brilliant Black BN (Sigma Aldrich), and Ponceau 4R (pillar box red food dye) (Queen Australia) were diluted in water to the maximum concentration required to be within detection range (250–1000 μM). Their absorbance spectra were measured with a NanoDrop^TM ND1000 (ThermoFisher Scientific) UV-Vis spectrophotometer and plotted vs UV-Vis spectrum wavelength using GraphPad Prism 6.0.

TRPV4 = target: T2, TRPV4 (Homo sapiens, UniProt Q9HBA0); test: FLIPR calcium dye assay in MDA-MB-468 breast cancer cells; format: cell-based; details: MDA-MB-468 cells, read-out: EC50 (increase in intracellular calcium)
T2 construct: endogenous in cells
Experimental: FLIPR Calcium 4 no-wash dye (Molecular Devices) and BD Calcium Assay (BD Biosciences) kits were diluted in physiological salt solution as per manufacturers instructions. […] Raw fluorescence readings were converted to response over baseline using the analysis tool of Screenworks 3.1.1.4 (Molecular Devices) and were expressed relative to the maximum increase in fluorescence of control responses following 5 min incubation of compounds.

human NaV1.7 = target: T3, human NaV1.7 (Homo sapiens, UniProt Q15858); test: automated whole-cell patch-clamp electrophysiology (QPatch-16); format: cell-based; details: Ponceau 4R 1 mM
T3 construct: host or cells: HEK293
Experimental: Automated whole-cell patch-clamp recordings were performed on HEK293 cells heterologously expressing human NaV1.7 (SB Drug Discovery, Glasgow, UK) using a QPatch-16 automated electrophysiology platform (Sophion Bioscience, Ballerup, Denmark) as previously described. The extracellular solution consisted of (in mM): NaCl 70, Choline chloride 70, KCl 4, CaCl2 2, MgCl2 1, HEPES 10 and glucose 10; pH 7.4; osmolarity 305 mOsm. The intracellular solution consisted of (in mM): CsF 140, EGTA/CsOH 1/5, HEPES 10 and NaCl 10; pH 7.3 with CsOH; osmolarity 320 mOsm. Ponceau 4R (1 mM) was diluted in extracellular solution and incubated for 5 min before running the voltage protocol and compared to time-matched buffer controls. Patch clamp experiments were conducted at room temperature.
I-V curves were obtained with the membrane potential held at –90 mV and a series of 500 ms step pulses that ranged from –110 to +55 mV in 5-mV increments. Conductance-voltage curves were calculated using the equation G = I/(V–Vrev), where G is conductance, I is peak current and Vrev is the reversal potential. Steady-state fast inactivation was tested using a two-pulse protocol, with 500 ms step pre-pulses (as above) preceding a 10 ms pulse of –20 mV (repetition interval 6000 ms). Both steady-state activation and inactivation curves were fitted using Boltzmann function.

hNaV1.8 = target: T4, hNaV1.8 (Homo sapiens, UniProt Q9Y5Y9); test: no-wash sodium influx assay (ANG-2 with quencher Ponceau 4R), FLIPR; format: cell-based
T4 construct: host or cells: HEK293
Text: (§3) […]. […] Data are presented as mean±SEM.

hNaV1.1 = target: T5, hNaV1.1 (Homo sapiens, UniProt P35498); test: as above; format: cell-based
T5 construct: host or cells: HEK293
Text: as §3

hNaV1.4 = target: T6, hNaV1.4 (Homo sapiens, UniProt P35499); test: as above; format: cell-based; details: hNaV1.4, response to veratridine 60 μM; read-out: IC50 (reduction of fluorescence response)
T6 construct: host or cells: HEK293
Text: as §3

NaV1.1–1.8 = test: no-wash sodium influx assay, summary over subtypes; format: cell-based, human; details: ANG-2 + Ponceau 4R 1 mM; stimulation with veratridine (NaV1.1–1.7) or deltamethrin (NaV1.8); read-out: IC50 range over NaV1.1–1.8
Text: as §3

NaV1.8 = tested on: NaV1.8; parameters: method as in PMID 14769548; details: cited from earlier work
NaV1.1–1.7 = details: read-out: EC50 range over NaV1.1–1.7; ANG-2 + Ponceau 4R 1 mM
Experimental: as §1, §2

hNaV1.2 = hNaV1.2 (Homo sapiens, UniProt Q99250); test: cell-based
Experimental: as §1, §2

[3] = 5 min, vs time-matched buffer control

T2 sequence (Q9HBA0 whole entry): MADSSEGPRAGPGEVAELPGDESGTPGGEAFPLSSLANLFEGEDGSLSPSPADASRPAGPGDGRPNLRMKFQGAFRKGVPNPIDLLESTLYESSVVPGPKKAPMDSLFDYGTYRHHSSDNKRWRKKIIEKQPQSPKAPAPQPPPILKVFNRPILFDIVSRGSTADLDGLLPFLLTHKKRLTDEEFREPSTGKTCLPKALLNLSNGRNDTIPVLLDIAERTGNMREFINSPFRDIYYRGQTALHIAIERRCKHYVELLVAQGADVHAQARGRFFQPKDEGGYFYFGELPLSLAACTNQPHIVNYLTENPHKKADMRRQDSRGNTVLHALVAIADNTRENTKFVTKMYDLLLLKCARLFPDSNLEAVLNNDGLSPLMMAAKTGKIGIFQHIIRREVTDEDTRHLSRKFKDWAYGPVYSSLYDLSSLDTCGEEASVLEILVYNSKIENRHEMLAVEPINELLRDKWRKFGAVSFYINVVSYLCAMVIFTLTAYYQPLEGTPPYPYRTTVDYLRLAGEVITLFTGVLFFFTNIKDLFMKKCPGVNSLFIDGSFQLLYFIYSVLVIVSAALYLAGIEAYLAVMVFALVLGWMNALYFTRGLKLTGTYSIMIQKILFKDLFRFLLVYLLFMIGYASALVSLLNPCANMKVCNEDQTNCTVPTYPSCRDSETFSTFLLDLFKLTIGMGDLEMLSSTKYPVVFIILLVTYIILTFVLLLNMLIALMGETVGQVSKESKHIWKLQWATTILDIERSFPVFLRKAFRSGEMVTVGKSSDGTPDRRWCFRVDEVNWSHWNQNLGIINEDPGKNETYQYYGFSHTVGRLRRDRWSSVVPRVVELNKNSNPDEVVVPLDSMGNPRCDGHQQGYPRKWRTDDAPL
T3 sequence (Q15858 whole entry): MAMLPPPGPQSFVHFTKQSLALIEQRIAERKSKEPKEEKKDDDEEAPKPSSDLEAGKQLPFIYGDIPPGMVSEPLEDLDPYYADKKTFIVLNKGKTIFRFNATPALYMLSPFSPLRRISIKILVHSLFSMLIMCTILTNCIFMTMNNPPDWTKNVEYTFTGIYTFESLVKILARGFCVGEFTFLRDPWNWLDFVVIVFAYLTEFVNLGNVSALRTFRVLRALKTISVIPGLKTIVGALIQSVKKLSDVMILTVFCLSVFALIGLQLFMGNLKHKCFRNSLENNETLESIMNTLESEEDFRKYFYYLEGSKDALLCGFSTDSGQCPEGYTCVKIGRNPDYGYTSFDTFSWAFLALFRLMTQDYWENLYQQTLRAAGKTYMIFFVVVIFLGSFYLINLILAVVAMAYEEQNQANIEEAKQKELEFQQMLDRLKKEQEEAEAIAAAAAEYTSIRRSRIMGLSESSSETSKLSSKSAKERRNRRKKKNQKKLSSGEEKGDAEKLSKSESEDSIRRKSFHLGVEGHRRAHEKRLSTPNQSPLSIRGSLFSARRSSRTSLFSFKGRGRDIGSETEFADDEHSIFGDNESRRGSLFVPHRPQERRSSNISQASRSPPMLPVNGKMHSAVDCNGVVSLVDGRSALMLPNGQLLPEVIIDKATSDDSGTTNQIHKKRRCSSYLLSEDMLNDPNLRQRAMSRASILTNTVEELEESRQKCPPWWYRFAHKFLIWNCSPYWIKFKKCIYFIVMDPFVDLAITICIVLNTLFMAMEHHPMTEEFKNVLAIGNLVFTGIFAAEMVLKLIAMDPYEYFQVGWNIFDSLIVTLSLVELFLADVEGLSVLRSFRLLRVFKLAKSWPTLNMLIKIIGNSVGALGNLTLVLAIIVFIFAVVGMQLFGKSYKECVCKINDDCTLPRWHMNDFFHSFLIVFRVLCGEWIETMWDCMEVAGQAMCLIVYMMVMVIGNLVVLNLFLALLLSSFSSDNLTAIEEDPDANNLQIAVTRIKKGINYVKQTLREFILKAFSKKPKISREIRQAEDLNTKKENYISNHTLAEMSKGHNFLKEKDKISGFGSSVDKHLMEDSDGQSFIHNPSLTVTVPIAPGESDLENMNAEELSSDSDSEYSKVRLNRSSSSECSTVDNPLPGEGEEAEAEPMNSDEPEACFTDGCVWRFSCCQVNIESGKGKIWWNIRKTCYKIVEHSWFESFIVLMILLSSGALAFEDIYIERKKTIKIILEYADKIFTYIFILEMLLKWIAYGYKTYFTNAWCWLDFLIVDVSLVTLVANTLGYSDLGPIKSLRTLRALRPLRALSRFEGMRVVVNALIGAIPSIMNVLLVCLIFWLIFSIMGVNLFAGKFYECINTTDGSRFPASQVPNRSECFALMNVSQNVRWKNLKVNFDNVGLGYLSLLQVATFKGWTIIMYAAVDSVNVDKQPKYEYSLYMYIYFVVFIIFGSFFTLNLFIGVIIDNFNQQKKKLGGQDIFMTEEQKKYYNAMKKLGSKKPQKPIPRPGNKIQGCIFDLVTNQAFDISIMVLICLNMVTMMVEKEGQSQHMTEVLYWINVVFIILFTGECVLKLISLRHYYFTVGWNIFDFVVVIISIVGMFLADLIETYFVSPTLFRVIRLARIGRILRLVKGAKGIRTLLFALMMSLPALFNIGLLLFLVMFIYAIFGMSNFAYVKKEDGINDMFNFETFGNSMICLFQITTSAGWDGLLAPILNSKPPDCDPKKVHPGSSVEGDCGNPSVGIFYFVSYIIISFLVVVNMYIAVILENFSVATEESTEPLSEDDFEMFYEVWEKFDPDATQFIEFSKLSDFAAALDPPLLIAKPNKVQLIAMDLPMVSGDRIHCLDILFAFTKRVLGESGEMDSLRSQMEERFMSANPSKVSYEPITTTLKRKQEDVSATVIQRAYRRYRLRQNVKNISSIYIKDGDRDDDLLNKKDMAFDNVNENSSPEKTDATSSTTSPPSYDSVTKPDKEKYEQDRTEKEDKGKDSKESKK
hNaV1.2, sequence (Q99250 whole entry): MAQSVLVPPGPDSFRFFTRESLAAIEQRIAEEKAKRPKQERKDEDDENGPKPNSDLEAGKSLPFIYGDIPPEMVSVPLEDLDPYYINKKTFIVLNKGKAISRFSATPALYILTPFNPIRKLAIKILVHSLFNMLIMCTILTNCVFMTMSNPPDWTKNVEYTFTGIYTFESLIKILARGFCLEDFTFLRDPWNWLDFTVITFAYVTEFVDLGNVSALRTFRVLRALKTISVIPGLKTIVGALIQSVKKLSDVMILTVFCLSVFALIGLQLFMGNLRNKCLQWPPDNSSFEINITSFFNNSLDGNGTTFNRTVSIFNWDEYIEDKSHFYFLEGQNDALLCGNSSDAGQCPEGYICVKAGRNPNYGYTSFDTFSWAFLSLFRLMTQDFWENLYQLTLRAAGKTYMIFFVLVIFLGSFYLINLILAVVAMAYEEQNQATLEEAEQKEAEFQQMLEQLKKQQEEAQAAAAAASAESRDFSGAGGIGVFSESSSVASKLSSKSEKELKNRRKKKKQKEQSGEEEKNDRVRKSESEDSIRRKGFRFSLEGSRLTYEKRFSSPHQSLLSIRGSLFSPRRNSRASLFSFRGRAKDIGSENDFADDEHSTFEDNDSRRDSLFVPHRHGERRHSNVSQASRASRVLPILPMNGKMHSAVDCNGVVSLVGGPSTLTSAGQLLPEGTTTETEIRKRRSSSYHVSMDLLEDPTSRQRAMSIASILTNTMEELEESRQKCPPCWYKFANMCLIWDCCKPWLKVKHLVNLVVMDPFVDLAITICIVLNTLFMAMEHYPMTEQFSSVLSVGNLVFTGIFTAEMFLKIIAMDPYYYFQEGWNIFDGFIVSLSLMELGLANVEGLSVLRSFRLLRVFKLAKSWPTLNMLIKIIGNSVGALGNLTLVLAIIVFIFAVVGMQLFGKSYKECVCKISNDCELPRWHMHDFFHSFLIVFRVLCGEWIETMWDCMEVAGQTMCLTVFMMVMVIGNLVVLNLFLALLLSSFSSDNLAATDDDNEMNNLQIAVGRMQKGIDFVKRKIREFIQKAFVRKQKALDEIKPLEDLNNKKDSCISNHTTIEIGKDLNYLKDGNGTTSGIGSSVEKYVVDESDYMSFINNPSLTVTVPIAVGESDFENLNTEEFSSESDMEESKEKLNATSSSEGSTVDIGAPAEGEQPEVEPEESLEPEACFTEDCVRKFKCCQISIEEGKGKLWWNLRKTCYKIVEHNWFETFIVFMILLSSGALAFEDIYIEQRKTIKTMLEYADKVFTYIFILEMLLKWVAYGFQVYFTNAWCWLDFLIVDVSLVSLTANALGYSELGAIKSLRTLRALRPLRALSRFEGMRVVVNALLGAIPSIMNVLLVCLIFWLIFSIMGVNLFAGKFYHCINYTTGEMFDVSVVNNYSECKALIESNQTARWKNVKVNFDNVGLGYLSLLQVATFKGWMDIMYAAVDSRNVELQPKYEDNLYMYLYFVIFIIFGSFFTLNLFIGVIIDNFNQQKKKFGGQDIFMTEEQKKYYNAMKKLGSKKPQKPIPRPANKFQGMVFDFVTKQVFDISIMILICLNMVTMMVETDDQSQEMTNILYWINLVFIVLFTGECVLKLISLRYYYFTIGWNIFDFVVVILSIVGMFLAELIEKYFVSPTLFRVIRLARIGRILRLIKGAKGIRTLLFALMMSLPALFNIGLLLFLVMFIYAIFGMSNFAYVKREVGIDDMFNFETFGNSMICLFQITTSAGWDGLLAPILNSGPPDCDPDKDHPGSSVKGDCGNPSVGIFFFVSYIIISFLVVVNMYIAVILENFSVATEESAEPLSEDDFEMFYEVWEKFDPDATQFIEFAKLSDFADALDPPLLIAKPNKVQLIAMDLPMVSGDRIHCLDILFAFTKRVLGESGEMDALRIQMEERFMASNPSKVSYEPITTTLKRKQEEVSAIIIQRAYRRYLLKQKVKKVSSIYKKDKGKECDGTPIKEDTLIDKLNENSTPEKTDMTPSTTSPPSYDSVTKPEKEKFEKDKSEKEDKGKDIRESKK
T1 sequence (Q15858 whole entry): as the sequence (Q15858 whole entry) above

With `Cc1c(C(=O)O)c(O)cc2c1C(=O)c1c(O)c(C3O[C@H](CO)[C@@H](O)[C@H](O)[C@H]3O)c(O)c(O)c1C2=O` (stereo in doubt) [Carmine] the “veratridine-induced fluorescence signal in presence of quencher” value (hNaV1.7) was “comparatively low signal” and the octanol-water partition [1] was “partitioned into the octanol phase”.
With `COc1cc(S(=O)(=O)[O-])c(C)cc1N=Nc1c(O)ccc2cc(S(=O)(=O)[O-])ccc12.[Na+].[Na+]` [Allura Red, Allura Red AC] the octanol-water partition [1] was “partitioned into the octanol phase”.
For `CC(=O)Nc1ccc(S(=O)(=O)[O-])c2cc(S(=O)(=O)[O-])c(N=Nc3ccc(N=Nc4ccc(S(=O)(=O)[O-])cc4)c4ccc(S(=O)(=O)[O-])cc34)c(O)c12.[Na+].[Na+].[Na+].[Na+]` [Brilliant Black BN], the “action on adenosine receptors” value (adenosine receptors) is listed as “allosteric modulator” and the “peak absorption (λ max)” value [2] is listed as 575 nm.
`CC(C)C[C@H](NC(=O)c1cc2ccccc2s1)C(=O)N1CCN(C(=O)[C@H](CO)NS(=O)(=O)c2ccc(Cl)cc2Cl)CC1` [GSK1016790A] showed an EC50 (TRPV4; BD Calcium Assay Kit) of 0.04 µM, an EC50 (TRPV4; FLIPR Calcium 4 no-wash dye) of 0.08 µM and an EC50 (TRPV4; fluo-4 with Allura Red 1 mM) of 0.064 µM. It also gave an EC50 (TRPV4; fluo-4 with Amaranth 1 mM) of 0.07 µM, an EC50 (TRPV4; fluo-4 with Brilliant Black BN 1 mM) of 0.072 µM and an EC50 (TRPV4; fluo-4 with Ponceau 4R 1 mM) of 0.074 µM. It also gave an EC50 (TRPV4; fluo-4 with wash) of 0.047 µM.
In the case of `O=S(=O)([O-])c1cc(S(=O)(=O)[O-])c2c(N=Nc3ccc(S(=O)(=O)[O-])c4ccccc34)c(O)ccc2c1.[Na+].[Na+].[Na+]` [Ponceau 4R], the “effect on activation or inactivation kinetics of NaV1.7” value (human NaV1.7) is reported as “no effect”, the “shift in the I-V curve or effect on current size” value (human NaV1.7) is reported as “did not cause a shift in the I-V curve or affect the current size” and the “shift in voltage-dependence of activation (V1/2 activation Δ)” value (human NaV1.7; [3]) is reported as “–0.96 mV”. The “shift in voltage-dependence of steady-state fast inactivation (V1/2 inactivation Δ)” value (human NaV1.7; [3]) was “–1.46 mV”.
Work on `CCCCNc1ccc(C(=O)OCCN(C)C)cc1` [tetracaine] yielded an IC50 (hNaV1.8; Tetracaine pIC50, hNaV1.8, 5 min pre-incubation, then deltamethrin 150 μM) of 6.61 µM, an IC50 (hNaV1.8; hNaV1.8, response to deltamethrin 150 μM, read-out: IC50 (reduction of fluorescence response)) of 6 µM and an IC50 (hNaV1.1; hNaV1.1, response to veratridine 60 μM, read-out: IC50 (reduction of fluorescence response)) of 52 µM. The IC50 (hNaV1.4) was 13 µM and the IC50 (NaV1.1–1.8) was 6 to 66 µM.
In the case of `COc1ccc(C(=O)O[C@H]2CC[C@@]3(C)[C@@H]4CC[C@H]5[C@]6(O)C[C@H](O)[C@@]7(O)[C@@H](CN8C[C@@H](C)CC[C@H]8[C@@]7(C)O)[C@]6(O)C[C@@]53O[C@]24O)cc1OC` [veratridine], the “effect on NaV1.8 in fluorescence-based assays” value (NaV1.8) is listed as “little effect”, the EC50 (NaV1.1–1.7) is listed as 10 to 29 µM and the EC50 (hNaV1.1; EC50 (increase in fluorescence), hNaV1.1, ANG-2 + Ponceau 4R) is listed as 21 µM. It also gave an EC50 (hNaV1.1; Veratridine pEC50, HEK293 hNaV1.1, ANG-2 + Ponceau 4R 1 mM, AUC 5 min) of 21.9 µM, an EC50 (hNaV1.2; EC50 (increase in fluorescence), hNaV1.2, ANG-2 + Ponceau 4R) of 16 µM and an EC50 (hNaV1.2; Veratridine pEC50, HEK293 hNaV1.2, ANG-2 + Ponceau 4R 1 mM, AUC 5 min) of 16.6 µM.
